From patent US8119627B2 (Sterix Limited, priority 2005, dated 2012)
Counter-ions that a name gives are not always drawn.

What was measured:
human 17β-HSD3 = molecular target: T1, human 17β-HSD3 (Homo sapiens, UniProt P37058); test: 17β-Hydroxysteroid dehydrogenase Type 3 activity in stably transfected 293-EBNA cells (3H-androstenedione to testosterone conversion); assay type: cell-based; settings: 10 μM test compound; 293-EBNA cells stably transfected with 17β-HSD Type 3; 2-3 nM 3H-androstenedione; 2 hours
T1 construct: expressed in transfected cells; host or cells: 293-EBNA cells (human), stably transfected
T1 sequence (P37058 1-310): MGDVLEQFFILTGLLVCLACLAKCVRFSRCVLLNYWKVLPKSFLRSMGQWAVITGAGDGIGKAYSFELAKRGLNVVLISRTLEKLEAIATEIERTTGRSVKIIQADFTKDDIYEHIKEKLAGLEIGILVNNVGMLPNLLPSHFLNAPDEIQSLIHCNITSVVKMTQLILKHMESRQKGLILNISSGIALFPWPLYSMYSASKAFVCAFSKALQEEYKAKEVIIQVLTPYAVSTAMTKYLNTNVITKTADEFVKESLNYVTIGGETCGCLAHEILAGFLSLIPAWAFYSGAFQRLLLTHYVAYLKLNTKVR
Method: Assay Protocol—17β-Hydroxysteroid Dehydrogenase Type 3 Activity in the Presence of Regulatory Agents
293-EBNA cells stably transfected with 17β-HSD Type 3 were plated at 50,000 cells/well in 24 well plates in complete growth medium. After 48 hours 2-3 nM ^3H-Androstenedione in assay medium (500 ml MEME medium with 5 ml 100× Pen/Strep, 5 ml 100×L-Glutamine, 5 ml 100×NEAA and 5 ml 7.5% sodium bicarbonate solution) was added with or without test compound at 1.5 ml/well (triplicate), and the cells incubated at 37° C.
Two hours later 1 ml medium was removed from each well and placed in a 125×16 mm glass test tube containing 25 μl of recovery solution (5000 dpm ^14C-Testosterone and 25 μg unlabelled Testosterone). Ether (4 ml) was added and the tubes vortexed at high speed for 2×30 sec. After the samples had settled into two phases they were snap-frozen in a dry ice/methanol bath. The upper organic phase was decanted into 75×12 mm tubes and evaporated to dryness under an airstream using a sample concentrator (TECHNE) at 40° C. The samples were resuspended in ether (8 drops, then a further 3), spotted onto silica 60 F254 20 cm×20 cm TLC plates, and separated using a 4:1 v/v dichloromethane:ethyl acetate mobile phase.
After drying the plates, the major spots were marked under a UV lamp, cut out, and placed in individual scintillation vials containing 0.5 ml methanol. These were then shaken lightly and allowed to stand for 15 min before adding 10 ml of EcoScint A (scintillation fluid) to each tube along with 0.5 ml assay medium, and counted in a scintillation spectrometer (Beckman) using a program for dual [^3H/^14C] isotopes. The number of cells/well was then counted using a Coulter counter (Beckman).
The inhibitory activity of the test compounds is then assessed by calculating the amount of product formed correcting for crossover between isotope counts, recovery, dilution and non-enzymatic degradation (fmol/hr/million cells) with and without inhibitor, (% inhibition).
Compounds were tested at 10 μM for inhibition of human 17β-HSD3 with typically […] human 293-EBNA cells/well.

O=C(c1ccccc1)N1CCC(Nc2ccccc2Oc2ccc(Cl)cc2)CC1
inhibition at 10 µM (human 17β-HSD3): > 60%

O=C(Nc1ccccc1Oc1ccc(Cl)cc1Cl)C1CCN(S(=O)(=O)c2cc(Cl)ccc2Cl)CC1
melting point: 194 to 196 °C

CC(C)C(=O)N1CCC(NC(=O)c2ccccc2Oc2ccc(Cl)cc2Cl)CC1
melting point: 51 to 54 °C

O=C(NC1CCN(C(=O)c2ccccc2)CC1)c1ccccc1Oc1ccc(Cl)cc1Cl
melting point: 63 to 66 °C

CC(=O)N1CCC(C(=O)Nc2ccccc2Oc2cc(Cl)cc(Cl)c2)CC1 [STX1604, 1-Acetyl-piperidine-4-carboxylic acid [2-(3,5-dichloro-phenoxy)-phenyl]-amide]
inhibition at 10 µM (human 17β-HSD3): 20 to 60%

O=C(Nc1ccccc1Oc1cc(Cl)cc(Cl)c1)C1CCN(C(=O)c2ccccc2)CC1 [STX1605, 1-Benzoyl-piperidine-4-carboxylic acid [2-(3,5-dichloro-phenoxy)-phenyl]-amide]
inhibition at 10 µM (human 17β-HSD3): 20 to 60%

CC(=O)N1CCC(C(=O)Nc2ccccc2Oc2ccc(C(F)(F)F)cc2)CC1 [STX1606, 1-Acetyl-piperidine-4-carboxylic acid [2-(4-trifluoromethyl-phenoxy)-phenyl]-amide]
inhibition at 10 µM (human 17β-HSD3): 20 to 60%

O=C(Nc1ccccc1Oc1ccc(C(F)(F)F)cc1)C1CCN(C(=O)c2ccccc2)CC1 [STX1607, 1-Benzoyl-piperidine-4-carboxylic acid [2-(4-trifluoromethyl-phenoxy)-phenyl]-amide]
inhibition at 10 µM (human 17β-HSD3): 20 to 60%

O=C(Nc1ccccc1Oc1ccc(Cl)cc1Cl)C1CCN(C(=O)c2ccccc2)CC1 [STX1613, 1-Benzoylpiperidine-4-carboxylic acid [2-(2,4-dichloro-phenoxy)phenyl]amide]
inhibition at 10 µM (human 17β-HSD3): 20 to 60%
melting point: 176 to 177 °C

CC(=O)N1CCC(C(=O)Nc2ccccc2Oc2ccc(Cl)cc2Cl)CC1 [STX1614, 1-Acetylpiperidine-4-carboxylic acid [2-(2,4-dichlorophenoxy)phenyl]amide]
inhibition at 10 µM (human 17β-HSD3): > 60%
melting point: 194 to 196 °C

O=C(Nc1ccccc1Oc1ccc(Cl)cc1)C1CCN(C(=O)c2ccccc2)CC1 [STX1615, 1-Benzoylpiperidine-4-carboxylic acid [2-(4-chlorophenoxy)phenyl]amide]
inhibition at 10 µM (human 17β-HSD3): < 20%
melting point: 158 to 160 °C

CC(=O)N1CCC(Nc2ccccc2Oc2ccc(Cl)cc2Cl)CC1 [STX1616, 1-{4-[2-(2,4-Dichlorophenoxy)phenylamino]piperidin-1-yl}ethanone]
inhibition at 10 µM (human 17β-HSD3): > 60%
melting point: 145 to 146 °C

CC(=O)N1CCC(C(=O)Nc2ccccc2Oc2ccc(Cl)cc2)CC1 [STX1617, 1-Acetylpiperidine-4-carboxylic acid [2-(4-chlorophenoxy)phenyl]amide]
inhibition at 10 µM (human 17β-HSD3): 20 to 60%
melting point: 195 to 196 °C

O=C(c1ccccc1)N1CCC(Nc2ccccc2Oc2ccc(Cl)cc2Cl)CC1 [STX1623, {4-[2-(2,4-Dichlorophenoxy)phenylamino]piperidin-1-yl}phenylmethanone]
inhibition at 10 µM (human 17β-HSD3): > 60%

CC(=O)N1CCC(C(=O)Nc2ccccc2Oc2ccc(OC(F)(F)F)cc2)CC1 [STX1624, 1-Acetyl-piperidine-4-carboxylic acid [2-(4-trifluoromethoxy-phenoxy)-phenyl]-amide]
inhibition at 10 µM (human 17β-HSD3): 20 to 60%

O=C(Nc1ccccc1Oc1ccc(OC(F)(F)F)cc1)C1CCN(C(=O)c2ccccc2)CC1 [STX1625, 1-Benzoyl-piperidine-4-carboxylic acid [2-(4-trifluoromethoxy-phenoxy)-phenyl]-amide]
inhibition at 10 µM (human 17β-HSD3): 20 to 60%

CC(=O)N1CCC(Nc2ccccc2Oc2ccc(Cl)cc2)CC1 [STX1629, 1-{4-[2-(4-chlorophenoxy)phenylamino]-piperidin-1-yl}-ethanone]
inhibition at 10 µM (human 17β-HSD3): > 60%

CC(C)(C)C(=O)N1CCC(Nc2ccccc2Oc2ccc(Cl)cc2)CC1 [STX1631, 1-{4-[2-(4-chlorophenoxy)phenylamino]-piperidin-1-yl}-2,2-dimethylpropan-1-one]
inhibition at 10 µM (human 17β-HSD3): 20 to 60%

CC(=O)N1CCCC(Nc2ccccc2Oc2ccc(Cl)cc2)CC1 (stereo not shown) [STX1762, 1-(4-(2-(4-chlorophenoxy)phenylamino)azepan-1-yl)ethanone]
inhibition at 10 µM (human 17β-HSD3): > 60%

O=C(c1ccco1)N1CCC(Nc2ccccc2Oc2ccc(Cl)cc2Cl)CC1 [STX1779, {4-[2-(2,4-Dichloro-phenoxy)-phenylamino]-piperidin-1-yl}-furan-2-yl-methanone]
inhibition at 10 µM (human 17β-HSD3): 20 to 60%

CC(=O)NC(CC(=O)Nc1ccccc1Oc1ccc(Cl)cc1)c1ccccc1 (stereo not shown) [STX1858, N-[2-(4-chlorophenoxy)phenyl]-3-acetamido-3-phenylpropanamide]
inhibition at 10 µM (human 17β-HSD3): < 20%

CC(=O)NCCC(=O)Nc1ccccc1Oc1ccc(Cl)cc1 [STX1859, N-[2-(4-chlorophenoxy)phenyl]-3-acetamidopropanamide]
inhibition at 10 µM (human 17β-HSD3): < 20%

CC(=O)N1CCC(Nc2ccccc2-c2ccc(Cl)cc2)CC1 [STX2044, 1-[4-(4′-Chlorobiphenyl-2-ylamino)piperidin-1-yl]ethanone]
inhibition at 10 µM (human 17β-HSD3): 20 to 60%

CC(=O)N1CCC(Nc2ccccc2-c2ccccc2Oc2ccccc2)CC1 [STX2048, 1-[4-(2′-Phenoxybiphenyl-2-ylamino)piperidin-1-yl]ethanone hydrochloride]
inhibition at 10 µM (human 17β-HSD3): 20 to 60%

CC(=O)N1CCC(Nc2ccccc2Oc2ccc(Cl)cc2)c2ccccc21 (stereo not shown) [STX2138]
inhibition at 10 µM (human 17β-HSD3): 20 to 60%

CC(=O)N1CCCC(Nc2ccccc2Oc2ccc(Cl)cc2)c2ccccc21 (stereo not shown) [STX2171, 1-Acetyl-5-[2-(4-Chloro-phenoxy)-phenylamino]-2,3,4,5-tetrahydro-benzo[b]azepine]
inhibition at 10 µM (human 17β-HSD3): > 60%

CC(=O)N1CCC(Nc2ccccc2Oc2ccc(Cl)cc2)CC1c1ccccc1 (stereo not shown) [STX2419, 1-(4-(2-(4-Chlorophenoxy)phenylamino)-2-phenylpiperidin-1-yl)ethanone]
inhibition at 10 µM (human 17β-HSD3): 20 to 60%

CC(=O)N1CCC(Nc2ccccc2Oc2ccc(Cl)cc2)CC1C(C)C (stereo not shown) [STX2523, 1-(4-(2-(4-Chlorophenoxy)phenylamino)-2-iso-propylpiperidin-1-yl)ethanone]
inhibition at 10 µM (human 17β-HSD3): > 60%

CC(=O)N1CC(N(Cc2ccccc2Oc2ccc(Cl)cc2)C(C)=O)Cc2ccccc21 (stereo not shown) [STX2525, N-(1-Acetyl-1,2,3,4-tetrahydro-quinolin-3-yl)-N-[2-(4-chloro-phenoxy)-benzyl]-acetamide]
inhibition at 10 µM (human 17β-HSD3): 20 to 60%
